Patent publication US20200316096A1, “COMBINATION OF DIET AND DRUG THERAPY FOR TREATING CANCER” (Trustees of Boston College, priority 2019, published 2020)

Tests used:
Iba-1 = Iba-1 expression in VM-M3 brain tumour tissue (immunohistochemistry, western blot); type: in vivo, mouse (VM/Dk); details: DON treated brain tumour tissue; immunohistochemistry and western blot
Method: FIGS. 6A-6C. Restricted Ketogenic diet with DON reduces the Iba-1 expression in the VM-M3 brain tumour tissue. Immunohistochemistry (IHC) of Iba-1 was performed in formalin fixed brain tissues as described in Methods. […] Western blot analysis of Iba-1 protein expression in the tumours indicates a decrease in the expression of Iba-1 in the DON treated tumours (n=3 mouse tumour brain tissue) in comparison to SD-UR (n=3 mouse tumour brain tissue). A decrease in expression was also seen for KD-R mice (n=2 mouse tumour brain tissue). Normal brain (NB) was used as a negative control tissue, FIGS. 6B and 6C.
Iba-1 protein expression was analyzed in the VM-M3 brain tumour tissue by immunohistochemistry and western blot. Iba-1 was heavily expressed in VM-M3 tumour and normal microglia/macrophages, as we described previously^37. The KD-R reduced the expression of Iba-1 as shown in both immunohistochemistry and western blot (FIGS. 6A and 6B). […]
Approximately 100 μg of total protein from each tissue sample was denatured with SDS-PAGE sample buffer [63 mmol/L Tris-HCl (pH 6.8), 10% glycerol, 2% SDS, 0.0025% bromphenol blue, and 5% 2-mercaptoethanol] and was resolved by SDS-PAGE on 4% to 12% Bis-Tris gels (Invitrogen). […] Each membrane was stripped and reprobed for β-actin as an internal loading control and the ratio of the Iba-1 to β-actin was analyzed by scanning densitometry (FluorChem 8900 Software).

[1] = Toxicity and body weight observations in DON treated mice; type: in vivo, mouse
Method: FIG. 11. Body weights of VM-M3 tumour bearing mice. VM-M3/Fluc tumour fragments were implanted as described in FIGS. 1A-1F. Body weight was determined every alternate day. Initial and final body weight data are presented. Mice fed the SD-UR began to drop body weight on the day of termination due to tumour burden. Mice fed the KD-R maintained a 15-18% body weight reduction throughout the experiment due to reduced caloric intake. Initial and final body weights were similar in the SD-UR and the SD-UR+DON mice (n=15 mice/group). Final body weights were lower than initial body weights in the KD-R and the KD-R+DON mice (n=15 mice/each group). Values are expressed as the mean+/−SEM and a two tailed student's t-test was performed between the initial and final values of each group (*=p<0.01).
It is proposed that issues with DON toxicity arise when there is an appreciable competition for glutamine between host and tumour. There is also increasing evidence supporting the protective role of glutamine supplementation for cancer patients^46. Since tumour consumption of glutamine is dissipative, glutamine supplementation might not increase tumour growth^46. However, additional preclinical studies are needed to determine if glutamine supplementation could be used together with DON. The present disclosure provides that strategies for managing toxicity of a therapeutically effective drug would be as important as developing a new drug.
The following studies were to determine if the simultaneous targeting of glucose and glutamine, while under therapeutic ketosis, could manage late stage growth and enhance survival without toxicity in two different syngeneic mouse models of GBM. DON was administered 7 days after tumour implantation, which is considered late for the VM-M3/Fluc tumour, as neurological signs and symptoms first appear at 10 to 12 days post implantation with morbidity occurring in 100% of the tumour-bearing mice by 14-18 days^2. Additional results were obtained in C57BL/6J inbred mice bearing the syngeneic CT-2A high-grade stem cell glioma^32. […]

With [N-]=[N+]=CC(=O)CC[C@H](N)C(=O)O [DON, 6-diazo-5-oxo-L-norleucine] the Iba-1 expression (Iba-1) was “significant reduction”, the “toxic effects in non-tumour-bearing VM/Dk mice” value ([1]; DON at the concentrations used in this study) was “no toxic effects” and the “initial versus final body weight” value ([1]; VM-M3 tumour bearing mice, n=15 mice/group) was “similar”. For the same molecule, the “toxicity in DON treated tumour-bearing mice” value ([1]; until end of study, when mild muscle loss was observed in some mice) was “No noticeable toxicity”.
